Experiments:
Assay type in all cases: cell-based, human
[1] = test system: HCT116 ARID1A isogenic (+/+ and −/−) cell lines; assay: Clonogenic survival of ARID1A isogenic cells
Procedure: (§1) FIG. 2. In vitro ARID1A/ATR synthetic lethality. A. Chemical structure of VX-970. B. Western blot of ARID1A in human ARID1A isogenic HCT116 cells. C. Image of colonies in 6 well-plate clonogenic assay. HCT116 ARID1A isogenic (^+/+ and ^−/−) cell lines were exposed to increasing concentrations of the VE-821 (0, 0.1, 1 uM) and VX-970 (0, 0.01, 0.05 uM) for 14 days. D and E. Dose response clonogenic survival curve of HCT116 ARID1A isogenic (^+/+ and ^−/−) cell lines exposed to increasing concentrations of the VE-821 and VX-970 for 14 days. Error bars represent SD from triplicate experiments, ANOVA p-value of <0.0001. F. Area under curve (AUC) box whisker comparison plot for human tumor cell lines exposed to VX-970 for five days. ARID1A wild type tumor cell lines (n=15) were compared to ARID1A mutant cell lines (n=9). Student's t-test p=0.00594. G. Dose response clonogenic survival curve of mouse Arid1a isogenic ES cell lines. Experiment was performed as per (C). Error bars represent SD from triplicate experiments, ANOVA p value of <0.0001. H. Western blot of Arid1a protein expression in mouse ES Arid1a isogenic cells. I. Z score box whisker comparison plot for 86 human tumor cell lines transfected with ATR siRNA. Cells lines were transfected with siRNA and cell viability was estimated five days later by Cell Titre Glo reagent.
Short-term survival assays were performed in 384-well plates. Exponentially growing cells were plated at a concentration of 500 cells/well. Drug was added 24 h after seeding and cells were continuously exposed to the drug for five days, after which cell viability was estimated using CellTitre-Glo luminescence (Promega). For clonogenic assays, cells were seeded in 6-well plates (500 cells/well) and continuously exposed to drug 24!h after seeding for 14 days. Media containing fresh drug was replaced every 72 hours. Cells were fixed with 10% trichloroacetic acid and stained with sulphorhodamine B (Sigma-Aldrich, Gillingham, UK). Colonies were counted manually. All cell-based assays were performed at least in triplicate.

[2] = test system: HCT116 cells; assay: VX-970 dose response after siRNA silencing of BAF components; settings: HCT116, 5 days exposure; p<0.0001 ANOVA
Procedure: FIG. 6. BAF complex deficiency causes sensitivity to ATR inhibition. A. Schematic of BAF complex composition in human cells. B. VX-970 dose response curves from HCT116 cells transfected with siRNA targeting ARID1B or SMARCA4. 48 hours after transfection cells were exposed to VX-970 for 5 days. Error bars represent SD from triplicate experiments. p<0.0001, ANOVA for siARID1B and siSMARCA4 vs. siCON. C. Western blots illustrating ARID1B and SMARCA4 silencing in experiment (B). D. VX-970 dose response curves from four OCCC cell lines, 3 SMARCA4 wildtype (blue; RMG1, KK and ES2) and 1 SMARCA4 mutant (red; TOV112D). E. Bar chart illustrating surviving fraction after five days VX-970 exposure in HCC1143 and He1a cells transfected with siRNA targeting either SMARCA4 or ARID1A *p<0.05 by Student's t-test compared to siCon. F. Western blot illustrating level of chromatin bound TOP2A in HCT116 cells transfected siRNA targeting ARID1A, ARID1B or SMARCA4. Cells were analysed 48 hours after transfection. G. A model for the proposed mechanism driving the sensitivity of ARID1A-deficient cells to ATRi. […]
(§2) Short-term survival assays were performed in 384-well plates. […] Drug was added 24 h after seeding and cells were continuously exposed to the drug for five days, after which cell viability was estimated using CellTitre-Glo luminescence (Promega). […] Colonies were counted manually. […]

[3] = test system: ARID1A mutant vs ARID1A wild type tumor cell lines; assay: Five-day VX-970 sensitivity (AUC) in a diverse tumour cell line panel; settings: five days exposure, Student's t-test
Procedure: as §1, with “I. Z score box whisker comparison plot for 86 human tumor cell lines transfected with ATR siRNA. Cells lines were transfected with siRNA and cell viability was estimated five days later by Cell Titre Glo reagent.” left out
as §2

CNCc1ccc(-c2cc(-c3nc(-c4ccc(S(=O)(=O)C(C)C)cc4)cnc3N)on2)cc1 [VX-970, 5-[4-(Isopropylsulfonyl)phenyl]-3-(3-{4-[(methylamino)methyl]phenyl}-1,2-oxazol-5-yl)-2-pyrazinamine]
ARID1A−/− selectivity compared with PARP inhibitors or cisplatin [1]: greater than for other proposed ARID1A-targeted agents | VX-970 sensitivity after silencing of SMARCA4, ARID1B or SMARCB1 [2]: enhanced sensitivity | sensitivity of ARID1A mutant (n=9) vs non-mutant (n=15) tumour cell lines [3]: significantly more sensitive to VX-970

Reference: patent publication US12233060B2, “Inhibitors of Ataxia-Telangiectasia Mutated and Rad3-related protein kinase (ATR) for use in methods of treating cancer” (THE INSTITUTE OF CANCER RESEARCH: ROYAL CANCER HOSPITAL, priority 2016, dated 2025)
